Legend:
Assay type in all cases: in vivo
[1] = tested on: barnyardgrass (Echinochloa crus-galli); assay: Test A pre-/postemergence plant response
Method in brief: (§1)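 Injury was scored visually after roughly ten days against untreated controls, 0 = no effect, 100 = complete control. Test chemicals in a surfactant-containing non-phytotoxic solvent were sprayed either onto soil preemergence or onto one- to two-leaf, 2–10 cm plants postemergence.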

corn (Zea mays) = assay: Test A pre-/postemergence plant response
Method in brief: as §1

[2] = tested on: giant foxtail (Setaria faberii); assay: Test A pre-/postemergence plant response
Method in brief: as §1

[3] = tested on: large crabgrass (Digitaria sanguinalis); assay: Test A pre-/postemergence plant response
Method in brief: as §1

[4] = tested on: morningglory (Ipomoea spp.); assay: Test A pre-/postemergence plant response
Method in brief: as §1

[5] = tested on: pigweed (Amaranthus retroflexus); assay: Test A pre-/postemergence plant response
Method in brief: as §1

[6] = tested on: velvetleaf (Abutilon theophrasti); assay: Test A pre-/postemergence plant response
Method in brief: as §1

[7] = tested on: wheat (Triticum aestivum); assay: Test A pre-/postemergence plant response
Method in brief: as §1

[8] = tested on: barnyardgrass (Echinochloa crus-galli); assay: Test B flooded paddy test; details: for Plant response rating, Flood, Barnyardgrass: 250 g ai/ha, flooded paddy test, visual rating on 0 to 100 scale (0 no effect, 100 complete control) after 13 to 15 days; for Plant response rating, Barnyardgrass: Flood (flooded paddy test), 13 to 15 days; for Barnyardgrass plant response rating: Flood, 31 g ai/ha, scale 0 to 100 (0 no effect, 100 complete control)
Method in brief: (§2)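 Rice, umbrella sedge, ducksalad and barnyardgrass were grown to the 2-leaf stage, flooded to 3 cm, and compound was applied directly to the paddy water, with that depth kept throughout. After 13 to 15 days in the greenhouse, plants were visually rated against controls on a 0 (no effect) to 100 (complete control) scale.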

[9] = tested on: ducksalad (Heteranthera limosa); assay: Test B flooded paddy test; details: for Plant response rating, Flood, Ducksalad: 250 g ai/ha, flooded paddy test, visual rating on 0 to 100 scale (0 no effect, 100 complete control) after 13 to 15 days; for Plant response rating, Ducksalad: Flood (flooded paddy test), 13 to 15 days; for Ducksalad plant response rating: Flood, 31 g ai/ha, scale 0 to 100 (0 no effect, 100 complete control)
Method in brief: as §2

rice (Oryza sativa) = assay: Test B flooded paddy test; details: for Plant response rating, Flood, Rice: 250 g ai/ha, flooded paddy test, visual rating on 0 to 100 scale (0 no effect, 100 complete control) after 13 to 15 days; for Plant response rating, Rice: Flood (flooded paddy test), 13 to 15 days; for Rice plant response rating: Flood, 31 g ai/ha, scale 0 to 100 (0 no effect, 100 complete control)
Method in brief: as §2

[10] = tested on: umbrella sedge (Cyperus difformis); assay: Test B flooded paddy test; details: for Plant response rating, Flood, Sedge, Umbrella: 250 g ai/ha, flooded paddy test, visual rating on 0 to 100 scale (0 no effect, 100 complete control) after 13 to 15 days; for Plant response rating, Sedge, Umbrella: Flood (flooded paddy test), 13 to 15 days; for Sedge, Umbrella plant response rating: Flood, 31 g ai/ha, scale 0 to 100 (0 no effect, 100 complete control)
Method in brief: as §2

[11] = Postemergence, 125 g ai/ha, 0 to 100 scale where 0 is no effect and 100 is complete control
[12] = Postemergence, 500 g ai/ha, visual injury, 0 to 100 scale (0 no effect, 100 complete control), approx. ten days
[13] = Preemergence, 125 g ai/ha, 0 to 100 scale, 0 = no effect, 100 = complete control
[14] = Preemergence, 500 g ai/ha, 0 to 100 scale, 0 = no effect, 100 = complete control
[15] = 62 g ai/ha, scale of 0 to 100 where 0 is no effect and 100 is complete control
[16] = 125 g ai/ha, scale 0 to 100, 0 is no effect, 100 is complete control
[17] = Postemergence, 500 g ai/ha, 0 to 100 scale, 0 = no effect, 100 = complete control, approx. ten days
[18] = Preemergence, 500 g ai/ha, visual injury, 0 to 100 scale (0 no effect, 100 complete control), approx. ten days

CCCn1c(-c2cc(F)cc(F)c2)ncc(C(=O)C2=C(O)CC(C)(C)CC2=O)c1=O [Compound 224]
50: Corn plant response rating (corn (Zea mays); [12]) | Plant response rating, Velvetleaf [6, 13]
60: Wheat plant response rating [7, 12] | Plant response rating, Flood, Rice (rice (Oryza sativa))
10: Plant response rating, Corn (corn (Zea mays); [11])
75: Plant response rating, Flood, Ducksalad [9] | Plant response rating, Flood, Sedge, Umbrella [10]
0: Plant response rating, Barnyardgrass [1, 13] | Plant response rating, Wheat [7, 11] | Plant response rating, Wheat [7, 13] | Plant response rating, Barnyardgrass [8, 15] | Plant response rating, Barnyardgrass [8, 16] | Barnyardgrass plant response rating [8] | Plant response rating, Ducksalad [9, 15] | Plant response rating, Ducksalad [9, 16] | Ducksalad plant response rating [9] | Plant response rating, Rice (rice (Oryza sativa); [15]) | Plant response rating, Rice (rice (Oryza sativa); [16]) | Rice plant response rating (rice (Oryza sativa)) | Plant response rating, Sedge, Umbrella [10, 15] | Plant response rating, Sedge, Umbrella [10, 16] | Sedge, Umbrella plant response rating [10]
90: Plant response rating, Barnyardgrass [1, 11] | Barnyardgrass plant response rating [1, 12] | Plant response rating, Barnyardgrass [1, 14]
100: Foxtail, Giant plant response rating [2, 12] | Crabgrass, Large plant response rating [3, 12] | Plant response rating, Crabgrass, Large [3, 14] | Plant response rating, Morningglory [4, 11] | Morningglory plant response rating [4, 12] | Plant response rating, Pigweed [5, 11] | Pigweed plant response rating [5, 12] | Plant response rating, Pigweed [5, 14] | Plant response rating, Velvetleaf [6, 11] | Velvetleaf plant response rating [6, 12]
30: Plant response rating, Morningglory [4, 14] | Plant response rating, Wheat [7, 14] | Plant response rating, Flood, Barnyardgrass [8]
70: Plant response rating, Foxtail, Giant [2, 11] | Plant response rating, Foxtail, Giant [2, 14] | Plant response rating, Crabgrass, Large [3, 11] | Plant response rating, Crabgrass, Large [3, 13] | Plant response rating, Pigweed [5, 13]
20: Plant response rating, Corn (corn (Zea mays); [13]) | Plant response rating, Corn (corn (Zea mays); [14]) | Plant response rating, Foxtail, Giant [2, 13]
80: Plant response rating, Velvetleaf [6, 14]

CCc1ccc(-n2c(-c3cccc(F)c3)ncc(C(=O)C3=C(O)CCCC3=O)c2=O)cc1 [Compound 204]
100: Plant response rating, Barnyardgrass [1, 11] | Barnyardgrass plant response rating [1, 12] | Foxtail, Giant plant response rating [2, 12] | Crabgrass, Large plant response rating [3, 12] | Plant response rating, Crabgrass, Large [3, 14] | Morningglory plant response rating [4, 12] | Plant response rating, Pigweed [5, 11] | Pigweed plant response rating [5, 12] | Plant response rating, Pigweed [5, 13] | Plant response rating, Pigweed [5, 14] | Plant response rating, Velvetleaf [6, 11] | Velvetleaf plant response rating [6, 12] | Plant response rating, Flood, Ducksalad [9]
95: Plant response rating, Flood, Sedge, Umbrella [10]
20: Plant response rating, Corn (corn (Zea mays); [13]) | Plant response rating, Corn (corn (Zea mays); [14]) | Plant response rating, Foxtail, Giant [2, 13] | Plant response rating, Wheat [7, 13]
60: Plant response rating, Crabgrass, Large [3, 11] | Plant response rating, Flood, Barnyardgrass [8] | Plant response rating, Flood, Rice (rice (Oryza sativa))
10: Corn plant response rating (corn (Zea mays); [12]) | Barnyardgrass plant response rating [8]
25: Plant response rating, Barnyardgrass [8, 16]
80: Plant response rating, Barnyardgrass [1, 14] | Plant response rating, Morningglory [4, 14]
15: Plant response rating, Barnyardgrass [8, 15]
30: Plant response rating, Barnyardgrass [1, 13] | Plant response rating, Foxtail, Giant [2, 11] | Plant response rating, Morningglory [4, 11]
40: Plant response rating, Crabgrass, Large [3, 13] | Wheat plant response rating [7, 12] | Plant response rating, Wheat [7, 14]
0: Plant response rating, Corn (corn (Zea mays); [11]) | Plant response rating, Morningglory [4, 13] | Plant response rating, Wheat [7, 11] | Plant response rating, Rice (rice (Oryza sativa); [15]) | Plant response rating, Rice (rice (Oryza sativa); [16]) | Rice plant response rating (rice (Oryza sativa))
70: Plant response rating, Ducksalad [9, 15] | Sedge, Umbrella plant response rating [10]
90: Plant response rating, Foxtail, Giant [2, 14] | Plant response rating, Velvetleaf [6, 14] | Plant response rating, Ducksalad [9, 16] | Plant response rating, Sedge, Umbrella [10, 16]
50: Plant response rating, Velvetleaf [6, 13] | Ducksalad plant response rating [9]
75: Plant response rating, Sedge, Umbrella [10, 15]

COCCCn1c(-c2cccc(Cl)c2)ncc(C(=O)C2=C(O)CCCC2=O)c1=O [Compound 143]
100: Plant response rating, Morningglory [4, 17] | Plant response rating, Velvetleaf [6, 11] | Plant response rating, Velvetleaf [6, 17] | Plant response rating, Velvetleaf [6, 18]
65: Plant response rating, Flood, Sedge, Umbrella [10]
10: Plant response rating, Corn (corn (Zea mays); [11]) | Plant response rating, Foxtail, Giant [2, 13] | Plant response rating, Morningglory [4, 13] | Plant response rating, Wheat [7, 17]
40: Plant response rating, Barnyardgrass [1, 13]
50: Plant response rating, Crabgrass, Large [3, 13]
90: Plant response rating, Barnyardgrass [1, 17] | Plant response rating, Barnyardgrass [1, 18] | Plant response rating, Crabgrass, Large [3, 17] | Plant response rating, Crabgrass, Large [3, 18] | Plant response rating, Morningglory [4, 11] | Plant response rating, Pigweed [5, 17] | Plant response rating, Pigweed [5, 18] | Plant response rating, Flood, Ducksalad [9]
20: Plant response rating, Corn (corn (Zea mays); [17]) | Plant response rating, Flood, Barnyardgrass [8]
60: Plant response rating, Foxtail, Giant [2, 11]
0: Plant response rating, Corn (corn (Zea mays); [13]) | Plant response rating, Corn (corn (Zea mays); [18]) | Plant response rating, Wheat [7, 11] | Plant response rating, Wheat [7, 13] | Plant response rating, Wheat [7, 18] | Plant response rating, Barnyardgrass [8, 15] | Plant response rating, Barnyardgrass [8, 16] | Barnyardgrass plant response rating [8] | Plant response rating, Flood, Rice (rice (Oryza sativa)) | Plant response rating, Rice (rice (Oryza sativa); [15]) | Plant response rating, Rice (rice (Oryza sativa); [16]) | Rice plant response rating (rice (Oryza sativa)) | Plant response rating, Sedge, Umbrella [10, 15] | Plant response rating, Sedge, Umbrella [10, 16] | Sedge, Umbrella plant response rating [10]
80: Plant response rating, Foxtail, Giant [2, 17] | Plant response rating, Ducksalad [9, 15] | Plant response rating, Ducksalad [9, 16] | Ducksalad plant response rating [9]
70: Plant response rating, Barnyardgrass [1, 11] | Plant response rating, Foxtail, Giant [2, 18] | Plant response rating, Crabgrass, Large [3, 11] | Plant response rating, Morningglory [4, 18] | Plant response rating, Pigweed [5, 11] | Plant response rating, Pigweed [5, 13] | Plant response rating, Velvetleaf [6, 13]
